# Test results taken from PubChem BioAssay AID449750 (Broad Institute, 2010).
# The source made the active and inactive calls. No rule for the calls is given here.
# Assay: non-covalent RecA intein splicing inhibitors, dose response, biochemical, cell-free, fluorescence, secondary screen (AID 449750)
row,SMILES,AC50
1,CCOc1cc(C(c2c(C)[nH][nH]c2=O)c2c(C)[nH][nH]c2=O)cc(Br)c1OC,15.8 µM
2,CCOC(=O)c1cnc(-n2[nH]c(C)c(Cc3ccccc3)c2=O)[nH]c1=O,> 38 µM (inactive)
3,O=C1NCN(c2ccccc2)C12CCN(CCCC(c1ccc(F)cc1)c1ccc(F)cc1)CC2,16.5 µM
4,COc1ccc2nc(SCC(=O)NN)cc(C)c2c1,> 38 µM (inactive)
5,CCOC(=O)/C(C#N)=C1/SC(C)C(=O)N1c1ccc(Br)cc1 (stereo unspecified),> 38 µM (inactive)
6,O=C(Nc1ccccc1)Nc1ccc(O)c2ccccc12,14.4 µM
7,[O-]C1=N/[N+](=C/c2ccc(Cl)c(Cl)c2)CC1,> 38 µM (inactive)
8,Cn1[nH]c(CSc2ccc(Cl)cc2)cc1=O,13.3 µM
9,O=C1C(=O)c2ccccc2C(O)=C1CCCCl,35.6 µM
10,COC(=O)c1sc(-c2ccc(Cl)cc2)cc1NC(=O)/C=C/C(=O)O,9.69 µM
11,CCOC(=O)C1=C(C)NC(SCc2cc(=O)[nH][nH]2)=C(C#N)C1c1cccs1 (stereo unspecified),4.69 µM
12,CCCCCCCCCCOC(=O)Cn1c(COc2cccc(OC)c2)[n+](C)c2ccccc21,9.12 µM
13,C/C(CC(=O)Nc1ccccn1)=N\NC(=O)c1ccc(C)cc1,> 38 µM (inactive)
14,Cc1ccc(CNC(=O)CCN2C(=O)[C@@H]3Cc4ccccc4CN3C2=O)cc1,> 38 µM (inactive)
15,CC(C)(C)OC(=O)NCCc1nnc(S(=O)(=O)Cc2ccc(Cl)cc2Cl)o1,> 38 µM (inactive)
16,COc1ccc(C2NC(c3ccc(OC)cc3OC)C(C)C(=O)C2C)c(OC)c1 (stereo unspecified),> 38 µM (inactive)
17,COc1ccc(/C(=N/OC(C)=O)c2nccc3cc(OC)c(OC)cc23)cc1OC,> 38 µM (inactive)
18,NS(=O)(=O)c1ccc(NC2=CC(=O)C(=O)c3ccccc32)cc1,7.47 µM
19,Cc1ccccc1Nc1cc2ccccc2c(=O)[nH]1,1.54 µM
20,Cc1c(OCC(=O)Nc2cccnc2)ccc2c3c(c(=O)oc12)CCC3,> 38 µM (inactive)
21,CCN(CC)c1ccc2c(c1)CCCN2,> 12 µM (inactive)
22,O=C(O)c1ccc(NC2=C(n3nnc4ccccc43)C(=O)c3ccccc3C2=O)cc1,3.84 µM
23,N#Cc1c(N2CCCC2)nc(N)c2c(N)nc(N3CCCC3)cc12,0.774 µM
24,CCOC(=O)C1CCN(Cc2cc(C(C)C)c(O)c(C(C)C)c2)CC1,> 38 µM (inactive)
25,COC(=O)c1ccc(-n2c(C)cc(C(=O)CCl)c2C)cc1,17.8 µM
26,COC(=O)c1cc(NC(=O)Nc2ccccc2OC)cc(C(=O)OC)c1,> 38 µM (inactive)

row,SMILES,AC50
1,CCOc1cccc(-c2cc(=O)[nH][nH]2)c1,10.7 µM
2,Cc1[nH][nH]c(=O)c1C(c1ccccc1[N+](=O)[O-])C(C#N)C#N (stereo unspecified),> 38 µM (inactive)
3,COC(=O)C[C@]1(C(=O)OC)CN(C#N)N(c2ccc(Cl)cc2)C12c1ccccc1-c1ccccc12,14.3 µM
4,Cn1c(SCC(=O)NCC2CCCO2)ncc(C(=O)Nc2ccc(F)cc2)c1=O (stereo unspecified),7.58 µM
5,O=C(N/N=C1\C/C(=N\NC(=O)c2ccncc2)c2ccccc21)c1ccncc1,17.3 µM
6,Cc1ccc(-n2nc(C)c3c2OC(N)=C(C#N)C3c2ccoc2)cc1 (stereo unspecified),6.18 µM
7,CC1=NN(c2ccccc2)C(=O)/C1=C/c1cn(C)c2ccccc12,> 38 µM (inactive)
8,CC1=NN(c2ccccc2)C(=O)/C1=C/c1c(O)[nH]c(=O)[nH]c1=O,> 38 µM (inactive)
9,COc1ccc(OCc2cc(C(=O)N3CCCC(OC)C3)no2)c2ccccc12 (stereo unspecified),> 38 µM (inactive)
10,Cc1ccc(NC(=O)c2cc(NC(=O)/C=C\C(=O)O)ccc2N2CCCCC2)cc1,9.66 µM
11,COc1cccc(-n2nc(C#N)c(Cl)cc2=O)c1,> 38 µM (inactive)
12,COC(=O)COc1c(Cl)cc(C(c2c(C)[nH][nH]c2=O)c2c(C)[nH][nH]c2=O)cc1OC,27.8 µM
13,Cc1ccc(N2C(=O)C(Cl)=C(NCCO)C2=O)c(C)c1,> 38 µM (inactive)
14,N#CCCn1[nH]c(-c2ccccc2)cc1=O,8.16 µM
15,C(=N\Nc1nncc2ccccc12)/c1ccccn1,19.8 µM
16,CN(C)c1ncc(C2=C(Cl)C(=O)C(N3CCCC3)=C(Cl)C2=O)s1,14 µM
17,Cc1[nH]nc2c1C1(CCN(C(=O)OCc3ccccc3)CC1)C(C#N)=C(N)O2,> 38 µM (inactive)
18,CC(C)CNC(=O)c1c(N)n(Cc2ccc3c(c2)OCO3)c2nc3ccccc3nc12,5.59 µM
19,N#CC1=C(N)Oc2n[nH]c(-c3ccc(F)cc3)c2C1c1ccncc1 (stereo unspecified),8.32 µM
20,O=C(c1cccc(C(F)(F)F)c1)C1CCCN(Cc2ncc[nH]2)C1 (stereo unspecified),> 38 µM (inactive)
21,C/C(=N\NC(=O)c1ccncc1)c1cc2ccccc2oc1=O,> 38 µM (inactive)
22,O=C(CCl)c1cc2c3c(c1)CC(=O)N3CCC2,> 38 µM (inactive)
23,CCC1=Nc2cc(C(=O)NCCN3CCCC3)ccc2Sc2ccccc21,> 38 µM (inactive)
24,O=c1cc(-c2ccccc2)[nH]n1-c1ccc([N+](=O)[O-])cc1,13.1 µM
25,COc1ccc(C2NC(=O)NC3=C2CCc2ccccc23)cc1 (stereo unspecified),> 38 µM (inactive)
